Test results reported in ChEMBL document CHEMBL2380282, “CROSS: an efficient workflow for reaction-driven rescaffolding and side-chain optimization using robust chemical reactions and available reagents” (J Med Chem, 2013).

Target: Prothrombin (Homo sapiens, UniProt P00734)
Test: Inhibition of thrombin (unknown origin)

**Q.** Which Ki does the source give for N=C(N)c1ccc(CNC(=O)CN2C(=O)C(NS(=O)(=O)c3ccc4c(c3)CCO4)CCc3ccccc32)cc1 (configuration not stated) here?
**A.** 15.8 nM

**Q.** COc1ccc(OC)c(S(=O)(=O)NC2CCCCN(CC(=O)NCc3ccc(C(=N)N)cc3)C2=O)c1 (configuration not stated) was tested. Which Ki did it give?
**A.** 10 nM
